The IC50 is the concentration that inhibits the measured activity by half.

Consider 32 compounds from patent US7459585B2, “Benzene derivatives and pharmaceutical use thereof” (Ajinomoto Co., Inc., priority 1998, dated 2008).

Converted amounts (≈) assume the structure as drawn.

In the experiment the test system is NF-kappa B. The experiment is described as follows: Evaluation of NF-kappa B inhibition (β-gal reporter, IL-1β-induced). It counts as cell-based. The note with it: Homo sapiens; β-gal reporter with NF-kappa B binding motif in SV40 large T-immortalized HUVEC; induced with 1 ng/ml IL-1β; read-out: NF-kB inhibiting activity IC50. How it is done: Cells used for the tests were those prepared by stably introducing E. coli β-galactosidase (β-gal) genes driven by SV 40 minimum promoter fused with 4 tandems of the AP-1 binding motif derived from human MMP-1 gene enhancer into human normal umbilical cord vein endothelial cells (HUVEC) immortalized with SV 40 large T antigen. The cells were subcultured in RPMI medium containing 10% of FBS, and were seeded on a 96-well plate in a concentration of 1×10^4/well on a day before the start of the experiments. A compound of the present invention was dissolved in DMSO to obtain a solution of a proper concentration, which was added into the 96-well plate so that the final DMSO concentration would be not higher than 1%. 30 minutes after the addition of the compound, phorbol-12-myristate-13-acetate (PMA) was added to each well so as to obtain the final concentration of 50 ng/ml. β-gal activity was determined 16 hours after with a chemiluminescent substrate (Galacton-Light-Plus: Boehringer Mannheim) according to a protocol attached to the reagent. A Luminescence detector (ATTO) was used for the determination.
The tests were carried out in the same manner as that of Example 56. Concretely, the AP-1 binding motif of the reporter genes in Example 56 was replaced with the NF-kappa B binding motif derived from immunoglobulin kappa light chain enhancer, and NF-kappa B transcriptional activity was induced with 1 ng/ml of IL-1β in place of PMA.
For the compound `CC1(C)CC1C(=O)Nc1ccc(C(=O)c2ccc(NC(=O)C3CC3(C)C)cc2)cc1` (centres unmarked) [Compound 1], the IC50 is greater than 5 µg/mL.
The result for `CC1(C)CC1C(=O)Nc1ccc(Sc2ccc(NC(=O)C3CC3(C)C)cc2)cc1` (centres unmarked) [Compound 2] reads 0.1 µg/mL (≈ 0.245 µM); that for `CC1(C)CC1C(=O)Nc1ccc(Nc2ccc(NC(=O)C3CC3(C)C)cc2)cc1` (centres unmarked) [Compound 3], 1 µg/mL (≈ 2.55 µM); that for `CC1(C)CC1C(=O)Nc1ccc(Oc2ccc(NC(=O)C3CC3(C)C)cc2)cc1` (centres unmarked) [Compound 4], 1.1 µg/mL (≈ 2.8 µM).
In the case of `CC1(C)CC1C(=O)Nc1ccc(S(=O)(=O)c2ccc(NC(=O)C3CC3(C)C)cc2)cc1` (centres unmarked) [Compound 5] it was greater than 5 µg/mL; in that of `CC1(C)CC1C(=O)Nc1ccc(CCc2ccc(NC(=O)C3CC3(C)C)cc2)cc1` (centres unmarked) [Compound 6], 0.37 µg/mL (≈ 0.915 µM); in that of `CC1(C)CC1C(=O)Nc1ccc(Cc2cccc(NC(=O)C3CC3(C)C)c2)cc1` (centres unmarked) [Compound 7], 0.37 µg/mL (≈ 0.947 µM).
The result for `CC1(C)CC1C(=O)Nc1ccc(C(=NO)c2ccc(NC(=O)C3CC3(C)C)cc2)cc1` (centres unmarked) [Compound 8] reads 5 µg/mL (≈ 11.9 µM); that for `CC1(C)CC1C(=O)Nc1ccc(C(N)c2ccc(NC(=O)C3CC3(C)C)cc2)cc1` (centres unmarked) [Compound 9], 2.5 µg/mL (≈ 6.16 µM); that for `CC(=O)NC(c1ccc(NC(=O)C2CC2(C)C)cc1)c1ccc(NC(=O)C2CC2(C)C)cc1` (centres unmarked) [Compound 10], greater than 5 µg/mL.
On to `CC1(C)CC1C(=O)Nc1ccc(C(O)c2ccc(NC(=O)C3CC3(C)C)cc2)cc1` (centres unmarked) [Compound 11], for which the IC50 stood at 0.12 µg/mL (≈ 0.295 µM).
In the case of `COC(c1ccc(NC(=O)C2CC2(C)C)cc1)c1ccc(NC(=O)C2CC2(C)C)cc1` (centres unmarked) [Compound 12] it was greater than 5 µg/mL; in that of `CC1(C)CC1C(=O)Nc1ccc(C(CN=[N+]=[N-])c2ccc(NC(=O)C3CC3(C)C)cc2)cc1` (centres unmarked) [Compound 17], 2.5 µg/mL (≈ 5.61 µM).
In the case of `CC1(C)CC1C(=O)Nc1ccc(C(CN)c2ccc(NC(=O)C3CC3(C)C)cc2)cc1` (centres unmarked) [Compound 18] it was 3 µg/mL (≈ 7.15 µM); in that of `CC1(C)CC1C(=O)Nc1ccc(C(CC#N)c2ccc(NC(=O)C3CC3(C)C)cc2)cc1` (centres unmarked) [Compound 19], 1.2 µg/mL (≈ 2.79 µM).
In the case of `CC1(C)CC1C(=O)Nc1ccc(C(CC(=O)O)c2ccc(NC(=O)C3CC3(C)C)cc2)cc1` (centres unmarked) [Compound 20] it was 3 µg/mL (≈ 6.69 µM); in that of `CC1(C)CC1C(=O)Nc1ccc(Cc2ccc(NC(=O)C3CC3(Cl)Cl)cc2)cc1` (centres unmarked) [Compound 23], 0.1 µg/mL (≈ 0.232 µM); in that of `COc1ccc(CC(=O)Nc2ccc(Cc3ccc(NC(=O)C4CC4(C)C)cc3)cc2)cc1` (centres unmarked) [Compound 24], 0.1 µg/mL (≈ 0.226 µM).
As for `CN(C)c1ccc(CC(=O)Nc2ccc(Cc3ccc(NC(=O)C4CC4(C)C)cc3)cc2)cc1` (centres unmarked) [Compound 25], the IC50 stood at 0.03 µg/mL (≈ 0.0658 µM).
In the case of `COc1ccc(CCC(=O)Nc2ccc(Cc3ccc(NC(=O)C4CC4(C)C)cc3)cc2)cc1` (centres unmarked) [Compound 26], the IC50 turned out to be 0.1 µg/mL (≈ 0.219 µM).
The result for `COc1ccc(CCNc2ccc(Cc3ccc(NC(=O)C4CC4(C)C)cc3)cc2)cc1` (centres unmarked) [Compound 27] reads 0.1 µg/mL (≈ 0.233 µM).
Consider `COc1ccc(CCCNc2ccc(Cc3ccc(NC(=O)C4CC4(C)C)cc3)cc2)cc1` (centres unmarked) [Compound 28], for which the IC50 came out at 0.1 µg/mL (≈ 0.226 µM).
As for `CC1(C)C[C@@H]1C(=O)Nc1ccc(C(O)c2ccc(NC(=O)[C@@H]3CC3(C)C)cc2)cc1` (some centres unmarked) [Compound 34], the IC50 came to 0.06 µg/mL (≈ 0.148 µM).
In the case of `CC1(C)C[C@H]1C(=O)Nc1ccc(C(O)c2ccc(NC(=O)[C@@H]3CC3(C)C)cc2)cc1` [Compound 35] it was greater than 5 µg/mL.
The result for `Cc1cc(Cc2ccc(NC(=O)C3CC3(C)C)c(C)c2)ccc1NC(=O)C1CC1(C)C` (centres unmarked) [Compound 38] reads 0.5 µg/mL (≈ 1.19 µM).
The result for `CC1(C)CC1C(=O)Nc1ccc(Cc2ccc(N3C(=O)C4C5C=CC(C5)C4C3=O)cc2)cc1` (centres unmarked) [Compound 40] reads 1 µg/mL (≈ 2.27 µM); that for `CC1(C)CC1C(=O)Nc1ccc(Cc2ccc(NC(=O)C3CCCN3)cc2)cc1` (centres unmarked) [Compound 43], 0.1 µg/mL (≈ 0.255 µM).
As to `CC1(C)CC1C(=O)Nc1ccc(C(O)c2ccc(NC(=O)Cc3ccc(Cl)cc3)cc2)cc1` (centres unmarked) [Compound 44], the IC50 came to 1.5 µg/mL (≈ 3.24 µM).
In the case of `COc1ccc(CC(=O)Nc2ccc(C(O)c3ccc(NC(=O)C4CC4(C)C)cc3)cc2)cc1` (centres unmarked) [Compound 45], the IC50 was 0.9 µg/mL (≈ 1.96 µM).
In the case of `CC1(C)CC1C(=O)Nc1ccc(COc2ccc(NC(=O)C3CC3(C)C)cc2)cc1` (centres unmarked) [Compound 51] it was 1 µg/mL (≈ 2.46 µM); in that of `CC1(C)CC1C(=O)Nc1ccc(CSc2ccc(NC(=O)C3CC3(C)C)cc2)cc1` (centres unmarked) [Compound 52], 0.2 µg/mL (≈ 0.473 µM); in that of `COc1ccc(CCCC(=O)Nc2ccc(Cc3ccc(NC(=O)C4CC4(C)C)cc3)cc2)cc1` (centres unmarked) [Compound 55], 0.1 µg/mL (≈ 0.212 µM).
